Data: PubChem BioAssay AID2060333 (Molecular Pharmacology Branch, DTP, NCI, 2025)

Tested on: 845751-090-R-J2-PDC tumor spheroid viability
Experiment: Anticancer human tumor 845751-090-R-J2-PDC patient-derived head and neck squamous carcinoma cell line growth inhibition [IpAb]
Conditions: spheroids with HUVEC and MSC; for IC50: curve of first compound; for viability, T/C: stronger effect = lower value
Summary of the method: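 Spheroids of 60% malignant cells, 25% HUVEC and 15% MSC were exposed to targeted agents combined with ipatasertib or abemaciclib. Doses started at or near clinical Cmax (10 microM when unknown) and fell in half-log steps.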

[1] = second compound 0.1 µM, first compound 0.0316 µM
[2] = second compound 0.1 µM, first compound 0.1 µM
[3] = second compound 0.316 µM, first compound 0.0316 µM
[4] = second compound 0.316 µM, first compound 0.1 µM
[5] = second compound 1 µM, first compound 0.0316 µM
[6] = second compound 1 µM, first compound 0.1 µM
[7] = second compound 3.16 µM, first compound 0.0316 µM
[8] = second compound 3.16 µM, first compound 0.1 µM
[9] = second compound 10 µM, first compound 0.0316 µM
[10] = second compound 10 µM, first compound 0.1 µM
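Note: spheroids exposed to compounds for 7 days before readout.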
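Throughout, for viability, T/C: CTG3D luminescence normalised so that 100% = DMSO vehicle control.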

Cn1ncc(Cl)c1-c1cc(C(=O)NC(CN)Cc2cccc(F)c2)sc1Cl (stereo not given) + CC(C)NCC(C(=O)N1CCN(c2ncnc3c2C(C)CC3O)CC1)c1ccc(Cl)cc1
IC50 (second compound 0.1 µM): 188 nM
IC50 (second compound 0.316 µM): < 31.6 nM
IC50 (second compound 1 µM): < 31.6 nM
IC50 (second compound 3.16 µM): < 31.6 nM
IC50 (second compound 10 µM): < 31.6 nM
viability, T/C [1]: 84.6%
viability, T/C [2]: 59.2%
viability, T/C (second compound 0.1 µM, first compound 0.316 µM): 33.2%
viability, T/C (second compound 0.1 µM, first compound 1 µM): 37%
viability, T/C (second compound 0.1 µM, first compound 3.16 µM): 12.1%
viability, T/C (second compound 0.1 µM, first compound 10 µM): 0.32%
viability, T/C [3]: 46.6%
viability, T/C [4]: 35.4%
viability, T/C (second compound 0.316 µM, first compound 0.316 µM): 37.3%
viability, T/C (second compound 0.316 µM, first compound 1 µM): 34.4%
viability, T/C (second compound 0.316 µM, first compound 3.16 µM): 13.6%
viability, T/C (second compound 0.316 µM, first compound 10 µM): 0.51%
viability, T/C [5]: 39.3%
viability, T/C [6]: 37.9%
viability, T/C (second compound 1 µM, first compound 0.316 µM): 37.2%
viability, T/C (second compound 1 µM, first compound 1 µM): 27.1%
viability, T/C (second compound 1 µM, first compound 3.16 µM): 8.86%
viability, T/C (second compound 1 µM, first compound 10 µM): 0.24%
viability, T/C [7]: 29%
viability, T/C [8]: 27%
viability, T/C (second compound 3.16 µM, first compound 0.316 µM): 26.3%
viability, T/C (second compound 3.16 µM, first compound 1 µM): 24.2%
viability, T/C (second compound 3.16 µM, first compound 3.16 µM): 8.88%
viability, T/C (second compound 3.16 µM, first compound 10 µM): 0.54%
viability, T/C [9]: 17.5%
viability, T/C [10]: 16.1%
viability, T/C (second compound 10 µM, first compound 0.316 µM): 24.5%
viability, T/C (second compound 10 µM, first compound 1 µM): 13.5%
viability, T/C (second compound 10 µM, first compound 3.16 µM): 7.33%
viability, T/C (second compound 10 µM, first compound 10 µM): 0.88%

Cn1ncnc1[C@H]1c2n[nH]c(=O)c3cc(F)cc(c23)N[C@@H]1c1ccc(F)cc1 + CC(C)NCC(C(=O)N1CCN(c2ncnc3c2C(C)CC3O)CC1)c1ccc(Cl)cc1
IC50 (second compound 0.1 µM): 25.8 nM
IC50 (second compound 0.316 µM): < 0.316 nM
IC50 (second compound 1 µM): < 0.316 nM
IC50 (second compound 3.16 µM): < 0.316 nM
IC50 (second compound 10 µM): < 0.316 nM
viability, T/C (second compound 0.1 µM, first compound 0.000316 µM): 53.9%
viability, T/C (second compound 0.1 µM, first compound 0.001 µM): 88.8%
viability, T/C (second compound 0.1 µM, first compound 0.00316 µM): 57%
viability, T/C (second compound 0.1 µM, first compound 0.01 µM): 49.1%
viability, T/C [1]: 54.1%
viability, T/C [2]: 33.6%
viability, T/C (second compound 0.316 µM, first compound 0.000316 µM): 38.1%
viability, T/C (second compound 0.316 µM, first compound 0.001 µM): 25%
viability, T/C (second compound 0.316 µM, first compound 0.00316 µM): 34.4%
viability, T/C (second compound 0.316 µM, first compound 0.01 µM): 29.6%
viability, T/C [3]: 26.1%
viability, T/C [4]: 22.3%
viability, T/C (second compound 1 µM, first compound 0.000316 µM): 30.1%
viability, T/C (second compound 1 µM, first compound 0.001 µM): 27.1%
viability, T/C (second compound 1 µM, first compound 0.00316 µM): 23.8%
viability, T/C (second compound 1 µM, first compound 0.01 µM): 28.5%
viability, T/C [5]: 22.9%
viability, T/C [6]: 20%
viability, T/C (second compound 3.16 µM, first compound 0.000316 µM): 29.6%
viability, T/C (second compound 3.16 µM, first compound 0.001 µM): 22.4%
viability, T/C (second compound 3.16 µM, first compound 0.00316 µM): 20.2%
viability, T/C (second compound 3.16 µM, first compound 0.01 µM): 24.8%
viability, T/C [7]: 14.7%
viability, T/C [8]: 14.8%
viability, T/C (second compound 10 µM, first compound 0.000316 µM): 14.8%
viability, T/C (second compound 10 µM, first compound 0.001 µM): 16.9%
viability, T/C (second compound 10 µM, first compound 0.00316 µM): 12.3%
viability, T/C (second compound 10 µM, first compound 0.01 µM): 10.7%
viability, T/C [9]: 11.6%
viability, T/C [10]: 9.65%

Cn1cnc2c(F)c(Nc3ccc(Br)cc3Cl)c(C(=O)NOCCO)cc21 + CCN1CCN(Cc2ccc(Nc3ncc(F)c(-c4cc(F)c5nc(C)n(C(C)C)c5c4)n3)nc2)CC1
IC50 (second compound 0.01 µM): > 3000 nM
IC50 (second compound 0.0316 µM): > 3000 nM
IC50 (second compound 0.1 µM): > 3000 nM
IC50 (second compound 0.316 µM): > 3000 nM
IC50 (second compound 1 µM): > 3000 nM
viability, T/C (second compound 0.01 µM, first compound 0.00949 µM): 198%
viability, T/C (second compound 0.01 µM, first compound 0.03 µM): 194%
viability, T/C (second compound 0.01 µM, first compound 0.0949 µM): 139%
viability, T/C (second compound 0.01 µM, first compound 0.3 µM): 129%
viability, T/C (second compound 0.01 µM, first compound 0.949 µM): 109%
viability, T/C (second compound 0.01 µM, first compound 3 µM): 69.8%
viability, T/C (second compound 0.0316 µM, first compound 0.00949 µM): 171%
viability, T/C (second compound 0.0316 µM, first compound 0.03 µM): 148%
viability, T/C (second compound 0.0316 µM, first compound 0.0949 µM): 125%
viability, T/C (second compound 0.0316 µM, first compound 0.3 µM): 107%
viability, T/C (second compound 0.0316 µM, first compound 0.949 µM): 89.3%
viability, T/C (second compound 0.0316 µM, first compound 3 µM): 71.5%
viability, T/C (second compound 0.1 µM, first compound 0.00949 µM): 147%
viability, T/C (second compound 0.1 µM, first compound 0.03 µM): 137%
viability, T/C (second compound 0.1 µM, first compound 0.0949 µM): 135%
viability, T/C (second compound 0.1 µM, first compound 0.3 µM): 106%
viability, T/C (second compound 0.1 µM, first compound 0.949 µM): 82.3%
viability, T/C (second compound 0.1 µM, first compound 3 µM): 63.8%
viability, T/C (second compound 0.316 µM, first compound 0.00949 µM): 163%
viability, T/C (second compound 0.316 µM, first compound 0.03 µM): 150%
viability, T/C (second compound 0.316 µM, first compound 0.0949 µM): 136%
viability, T/C (second compound 0.316 µM, first compound 0.3 µM): 128%
viability, T/C (second compound 0.316 µM, first compound 0.949 µM): 101%
viability, T/C (second compound 0.316 µM, first compound 3 µM): 97.2%
viability, T/C (second compound 1 µM, first compound 0.00949 µM): 159%
viability, T/C (second compound 1 µM, first compound 0.03 µM): 167%
viability, T/C (second compound 1 µM, first compound 0.0949 µM): 138%
viability, T/C (second compound 1 µM, first compound 0.3 µM): 114%
viability, T/C (second compound 1 µM, first compound 0.949 µM): 107%
viability, T/C (second compound 1 µM, first compound 3 µM): 64%
